Experimental data taken from patent US9068970B2, “Efficient and effective supplement screening for the development of chemically defined media in cell culture” (Abbvie Inc., priority 2010, dated 2015).
Where two headings read alike, the source gives them in different places.

Experiments:
Assay type in all cases: cell-based
[1] = system: recombinant IgG producing Chinese Hamster Ovary cell line (CHO cell line #1); assay: 24-well plate media supplement screening: peak viable cell density (CellTiter 96 AQueous)
Experimental: (§1) 24-well plates were utilized at a working volume of 1.5 mL per well to serve as the platform for media supplement screening. An in-house, base chemically defined media (CDM #1) was used as the basal media for the purposes of the experiments. A recombinant IgG producing Chinese Hamster Ovary cell line (CHO cell line #1) was used for the media supplement screening phase of the experiments.
All 24-well plate screening experiments were designed using JMP7 commercially available statistics software (Cary, N.C.) using custom experimental options. Six individual media supplement screening experiments were performed to test over a hundred different supplements in statistically designed experiments and in a serial fashion. All screening experiments were performed at […] cultured at 210 rpm on a shaker table in a 5% humidified CO2 incubator. Gas permeable, rayon film plate covers (VWR International, Radnor, Pa., Catalog #60941-086) were employed as necessary to provide a sterile barrier between the well plates, the plastic plate cover, and the culture atmosphere. Supplement solutions were manually pipetted into the respective plate wells using concentrated, sterile stock solutions. The comprehensive list of media supplements evaluated for cell culture process improvement is shown below in Table 2:
(§2) Two cell culture performance indicators were measured in the high-throughput screening experiments: peak viable cell density and harvest titer. Time point samples were withdrawn from each of the respective plate wells on Days 6, 7, and 8 post inoculation and measured for their respective viable cell densities spectrophotometrically via the CellTiter 96 AQueous Solution Cell Proliferation Assay Kits™ (Promega, Madison, Wis.). Harvest Titer measurements were conducted via high performance liquid chromatography (HPLC) with a Poros A™ affinity column (Applied Biosystems, Foster City, Calif.). All experimental wells supplemented with a particular combination of media compounds were compared to an unsupplemented control, with the results expressed as relative values relative to the control.
(§3) Two cell culture performance indicators were measured in the high-throughput screening experiments as well as media verification experiments; peak viable cell density (VCD) and harvest titer. […] A few days after the last cell count measurement sample the plates were centrifuged and the supernatant was collected and stored at −80° C. for future analysis. Harvest titer measurements were conducted via high performance liquid chromatography (HPLC) with a Poros A™ affinity column (Applied Biosystems, Foster City, Calif.). All experimental wells supplemented with a particular combination of media compounds were compared to an unsupplemented control, with the results expressed as values relative to the control. For the media verification experiments in larger-scale shaker and spinner flasks, viable cell density and viability were measured via Cedex automated cell counters (Roche Applied Science, Indianapolis, Ind.). Harvest titer measurements were similarly measured via HPLC.
(§4) Standard Analysis of Variance (ANOVA) was used to measure the significance of individual supplements and their respective interactions towards the resulting cell culture technique performance. Individual analyses were conducted on both peak viable cell density and harvest titer for each of the respective screening experiments. Three different levels of each media supplement were used in these experiments: unsupplemented (Level 1), lightly supplemented (Level 2), and heavily supplemented (Level 3). […] The optimization subroutine intrinsic to the statistics software was used to analyze the screening dataset determine the identity of a high performance media blend. It is important to note that the selection method is a mathematical exercise which can lead to multiple blends identified as having the highest performance parameters, and the results are highly dependent on the initial first guess.

[2] = system: recombinant IgG producing Chinese Hamster Ovary cell line (CHO cell line #1); assay: JMP7 statistical identification of high performance media supplementation from a 15-supplement screening experiment
Experimental: as §4
Fifteen of these supplements, or groups of supplements, were screened in a separate statistically designed experiment for the final determination of high performance media blends for the maximization of peak VCD, harvest titer, and both of these variables simultaneously.
The JMP7 statistical software program was further used to identify the high performance media supplementation for maximizing peak VCD, harvest titer, and both simultaneously.

[3] = system: recombinant IgG producing Chinese Hamster Ovary cell line (CHO cell line #1); assay: Supplement screening: process performance (peak VCD and/or harvest titer) by inspectional/statistical analysis
Experimental: as §4, with “guess. Three particular high performance blends were identified for further evaluation: […] The supplements whose relative concentrations supported a distinct pattern of either increasing or decreasing process performance were categorized into the clustered classification. […] These supplements were either compounds or groups of similar compounds such as polyamines, essential amino acids, and vitamins.” for “guess.”

[4] = system: recombinant IgG producing Chinese Hamster Ovary cell line (CHO cell line #1); assay: 24-well plate media supplement screening: harvest titer (HPLC, Poros A affinity column)
Experimental: as §1
All 24-well plate screening experiments were designed using JMP7 commercially available statistics software (Cary, N.C.) using custom experimental options. Six individual media supplement screening experiments were performed to test over a hundred different supplements in statistically designed experiments and in a serial fashion. […] Supplement solutions were manually pipetted into the respective plate wells using concentrated, sterile stock solutions. The comprehensive list of media supplements evaluated for cell culture process improvement is shown below in Table 2:
as §2, §3, §4
The aforementioned supplements were evaluated for improvements in cell culture technique performance.

[5] = HTS experiments, CDM #1, relative to unsupplemented control
[6] = predicted amount for addition into the unsupplemented control media
[7] = univariate analysis of varying supplement concentrations
[8] = range given, variability in culture volumes

Compound	Effect on Peak VCD [1, 5]	Concentration Target (Range) for Increase of Harvest Titer [2, 6]	Concentration Target (Range) for Increase of Peak VCD [2, 6]	Concentration Target (Range) for Increase of Peak VCD and Harvest Titer [2, 6]	Process Performance Pattern [3, 7]	Effect on Harvest Titer [4, 5]	Concentration Range for Increase of Peak VCD [2, 8]	Concentration Range for Increase of Harvest Titer [2, 8]	Concentration Range for Increase of Peak VCD and Harvest Titer [2, 8]	Effect on Peak VCD [1]	Concentration Target (Range) for Increase of Harvest Titer [2]	Concentration Target (Range) for Increase of Peak VCD [2]	Concentration Target (Range) for Increase of Peak VCD and Harvest Titer [2]	Process Performance Pattern [3]	Effect on Harvest Titer [4]
Calcium pantothenate	Increase	0 g/L	+0.15 (0.13-0.17) g/L	0 g/L	Wide dispersal	No change	–	–	–	–	–	–	–	–	–
Cc1cn([C@H]2C[C@H](O)[C@@H](CO)O2)c(=O)[nH]c1=O [Thymidine]	No change	–	–	–	Wide dispersal	Decrease	(1.75 × 10^−3-2.25 × 10^−3) g/L	–	–	–	–	–	–	–	–
[Cl-].[Cl-].[Zn+2] [Zinc chloride]	No change	+5.46 × 10^−3 g/L	+2.05 × 10^−3 g/L	+5.12 × 10^−3 g/L	Clustered	Increase	(1.82 × 10^−3-2.33 × 10^−3) g/L	(4.85 × 10^−3-6.22 × 10^−3) g/L	(4.54 × 10^−3-5.83 × 10^−3) g/L	–	–	–	–	–	–
OC[C@H]1O[C@@H]2O[C@H]3[C@H](O)[C@@H](O)[C@@H](O[C@H]4[C@H](O)[C@@H](O)[C@@H](O[C@H]5[C@H](O)[C@@H](O)[C@@H](O[C@H]6[C@H](O)[C@@H](O)[C@@H](O[C@H]7[C@H](O)[C@@H](O)[C@@H](O[C@H]1[C@H](O)[C@H]2O)O[C@@H]7CO)O[C@@H]6CO)O[C@@H]5CO)O[C@@H]4CO)O[C@@H]3CO [α-cyclodextrin]	Increase	0 g/L	+0.16 (0.14-0.18) g/L	0 g/L	Wide dispersal	Increase	–	–	–	–	–	–	–	–	–
O=S(=O)([O-])[O-].[Cu+2] [Cupric sulfate]	–	–	–	–	–	–	–	–	–	Increase	0 g/L	+0.02 g/L	0 g/L	Wide dispersal	Decrease
OC1C(O)C(O)C(O)C(O)C1O (stereo not drawn) [i-inositol]	No change	+0.05 (0.05-0.06) g/L	+0.11 (0.09-0.12) g/L	+0.19 (0.17-0.22) g/L	Wide dispersal	No change	–	–	–	–	–	–	–	–	–
Manganese chloride	Increase	+1.07 × 10^−4 g/L	+6.67 × 10^−5^ g/L	0 g/L	Wide dispersal	No change	(5.91 × 10^−5-7.59 × 10^−5) g/L	(9.46 × 10^−5-1.21 × 10^−4) g/L	–	–	–	–	–	–	–
